pEC50: −log10 of the molar value. Bounds are passed on as bounds.

This experiment deals with 5-hydroxytryptamine receptor 2A (Homo sapiens, UniProt P28223). The experiment can be described thus: Agonist activity at human 5HT2A receptor expressed in HEK293 cells assessed as IP1 accumulation by HTRF assay. In kind it is functional, cell-based.
Sequence of 5-hydroxytryptamine receptor 2A (P28223 whole entry): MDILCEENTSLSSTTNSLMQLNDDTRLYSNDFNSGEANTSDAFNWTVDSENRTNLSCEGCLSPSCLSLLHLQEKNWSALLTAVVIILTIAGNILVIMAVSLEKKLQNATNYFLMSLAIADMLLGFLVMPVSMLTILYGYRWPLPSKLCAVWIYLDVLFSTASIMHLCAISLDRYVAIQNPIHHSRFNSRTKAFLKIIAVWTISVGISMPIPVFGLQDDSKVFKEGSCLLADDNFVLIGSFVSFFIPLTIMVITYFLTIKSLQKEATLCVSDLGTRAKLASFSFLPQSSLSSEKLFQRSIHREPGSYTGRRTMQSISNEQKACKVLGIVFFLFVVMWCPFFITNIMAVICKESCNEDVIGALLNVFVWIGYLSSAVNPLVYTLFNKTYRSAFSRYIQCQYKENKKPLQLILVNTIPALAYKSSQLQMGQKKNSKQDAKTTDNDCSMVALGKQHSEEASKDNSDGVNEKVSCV

As usually defined, the pEC50 is −log10 of the EC50, conventionally taken in molar units. For the compound `N#Cc1c(F)ccc2c(C3=CCCNC3)c[nH]c12`, the pEC50 was more than 7.00.
As for `C1=C(c2csc3ccccc23)CNCC1`, the pEC50 is more than 7.00.
As for `N#Cc1cc(F)cc2c(C3=CCCNC3)c[nH]c12`, the figure is more than 7.00; as for `Oc1cccc2[nH]cc(C3=CCCNC3)c12`, more than 7.00; as for `Fc1ccc2c(C3=CCCNC3)n[nH]c2c1F`, more than 7.00.
As for `COc1cc(Cl)c2[nH]cc(C3=CCCNC3)c2c1`, the figure is more than 7.00.

The values are drawn from ChEMBL document CHEMBL6109168, “Novel Compounds as 5-HT2A Receptor Modulators for Treating Psychiatric and Neurological Disorders” (ACS Med Chem Lett, 2025).
